From patent US10752591B2, “18-20 member bi-polycyclic compounds” (Haro Pharmaceutical Inc., priority 2014, dated 2020) come the findings set out here.

One test concerns purified rat liver HDAC. Description: purified rat liver HDAC inhibition. Format: biochemical. The following applies: relative to compound 17. Here is the method:
The effect of compounds on the enzymatic activity of purified recombinant human HDAC-1, -2, -3, -6, and -8 activity and of purified rat liver HDAC was examined by measuring the deacetylation of synthetic peptides in various preparations of HDACs. HDAC assays were performed using a two-step enzymatic reaction where enzyme activity is correlated to the release of […] (AMC). AMC fluorescence is measured in a fluorescent plate reading using λex380 nm and λen440 nm.
The reaction was allowed to proceed for 40 min at 37° C., after which developer solution (0.5% trypsin, 10 μM trichostatin A (TSA)) was added to obtain a final concentration of 0.1% trypsin, 2 μM TSA. After 30 minutes at room temperature, the amount of free fluorogenic AMC was measured as described above.

Test [1] relates to C2Cl2 cells. Kind of test: myoblast fusion in long term C2Cl2 cultures (MHC immunocytochemistry). Format: cell-based. The following applies: long-term culture, suboptimal RPMI media with 2% horse serum. Here is the method:
The effect of compounds on myoblast fusion was examined in C2Cl2 cells maintained in RPMI media supplemented with 2% horse serum. C2Cl2 myoblastic cells where purchased from the American Type Culture Collection (ATCC) and maintained undifferentiated in RPMI media (Corning) supplemented with 2 mM L-Alanine-L-Glutamine (ATCC) and 1 mM pyruvate (Corning). Undifferentiated cells where maintained below 70% confluence. For long term cultures and compound treatment, cells where plated at high density CellBIND Culture Dishes (corning 3294, 3296, 3337) and in RPMI supplemented with 2% Horse Serum (Gibco) and 2 mM L-Alanine-L-Glutamine (ATCC) and 1 mM pyruvate (Corning). Compounds were dissolved in DMSO at 1000 time the final concentration and diluted 1-in-1000 in the media covering the cells. Media and compounds were changed daily. For immunocytochemistry, cells were fixed in 2% PFA in HBSS for 10 minutes and left in HBSS at 4° under humidified atmosphere and processed for immunocytochemistry. For myosin heavy chain detection (MHC), cells were first incubated in 100 ul-1 ml 0.15 M Glycine in DPBS for 10 minutes, rinse with DPBS. 100 ul-1 ml 0.5% Triton-X in DPBS was added for 10 minutes, rinsed with DPBS, and followed by incubation with 100 ul blocking agent (10% goat serum in DPBS) for 30 min at room temperature. MF20 primary antibody in 10% goat serum in DPBS was added at 1/60 dilution for 30 min at room temperature and rinsed three times with 100 ul DPBS. IgG2b goat anti mouse secondary antibody (Jackson Immuno-Research) was added at 1:1000 in 10% goat serum in DPBS for exactly 30 min at room temperature then rinsed 3 times with 100 ul DPBS. A final rinse in H2O was performed and cells were covered with two drops of Elvanol and cover gently with cover slip and allowed to dry in the dark for 24-48 hours.

In test [2] the test system is C2Cl2 cells. Kind of test: Q-RT PCR of myofiber-degradation associated genes in long term C2Cl2 cultures. The settings on record: day 10, normalized for RPLP0. Format: cell-based. Here is the method: Quantitative RT-PCR was performed on RNA prepared from cell treated as in Example 9. At day 10 of the experiment, cells were rinsed in HBSS (without calcium or magnesium) and RNA was prepared using FastLane Cell cDNA Kit (Qiagen). Quantitative PCR was performed using Eppendorf and SYBR amplification mix (Sigma-Aldrich) using the gene specific primer combination given in Table 3. Data were normalized for ribosomal housekeeping gene RPLP0

Another test relates to Lys382 acetylated p53. Kind of test: intracellular acetylation of p53 in IMR-32 cells (western blot). Format: cell-based. The following applies: 1 μM or 5 μM, 16 hours. Here is the method:
The effect of certain compounds on intracellular acetylation of target proteins was tested in high risk neuroblastoma cells, BE-2C and IMR-32 cells.
IMR32 cells were grown to confluence in phenol-red-free RPMI media supplemented with 10% es grade FBS and 2.5 mM Ala-Glu. Cells were treated with DMSO or 1 μM or 5 μM compound 13 in DMSO for 16 hours. Protein extracts were prepared in RIPA buffer in the presence of protease and phosphatase inhibitors. Proteins were separated on a 4-20% gel by PAGE and transferred to a nitrocellulose membrane.
Beta actin, total and Lys382 acetylated p53, and Lys40 acetylated alpha, and total tubulin were detected using antibodies (Cell Signaling #8557, #2524 #2525, #12152 and #2144 respectively) using manufacturer recommended conditions.

SMILES strings stand for the structures.

In the case of `CC1(C)CCC(C)(C)c2cc(-c3cc4cc(C(=O)NO)ccc4[nH]3)ccc21` [Compound 13], the “times more potent than compound 17 in inhibition of purified rat hepatic HDAC” value in the test with purified rat liver HDAC was “seventy”. Also, the “fusion of single cells into multinucleated C2Cl2 myotubes” value with C2Cl2 cells [1] is recorded as “enhances the fusion”. Further, in the test with C2Cl2 cells [2], the “expression of Atrogin” value is reported as “downregulates” and the expression of myogenin result is given as “downregulates”. Also, the “lysine acetylated p53 level” value in the test with Lys382 acetylated p53 is on record as “pronounced accumulation of lysine acetylated p53”.
